According to PMC11233931, “Remodeling tumor‐associated macrophage for anti‐cancer effects by rational design of irreversible inhibition of mitogen‐activated protein kinase‐activated protein kinase 2” (MedComm, 2024):

What was measured:
Assay in all cases: Eurofins kinase selectivity profile against 380 other human recombinant kinases (Table S2)
Format in all cases: biochemical
[1] = target: T1, 380 human recombinant protein kinases (Homo sapiens, UniProt O00444); conditions: Plk4(h), read-out: Inhibition rate
T1 construct: purchased Eurofins (Celle Lévescault)
T1 sequence (O00444 1-970): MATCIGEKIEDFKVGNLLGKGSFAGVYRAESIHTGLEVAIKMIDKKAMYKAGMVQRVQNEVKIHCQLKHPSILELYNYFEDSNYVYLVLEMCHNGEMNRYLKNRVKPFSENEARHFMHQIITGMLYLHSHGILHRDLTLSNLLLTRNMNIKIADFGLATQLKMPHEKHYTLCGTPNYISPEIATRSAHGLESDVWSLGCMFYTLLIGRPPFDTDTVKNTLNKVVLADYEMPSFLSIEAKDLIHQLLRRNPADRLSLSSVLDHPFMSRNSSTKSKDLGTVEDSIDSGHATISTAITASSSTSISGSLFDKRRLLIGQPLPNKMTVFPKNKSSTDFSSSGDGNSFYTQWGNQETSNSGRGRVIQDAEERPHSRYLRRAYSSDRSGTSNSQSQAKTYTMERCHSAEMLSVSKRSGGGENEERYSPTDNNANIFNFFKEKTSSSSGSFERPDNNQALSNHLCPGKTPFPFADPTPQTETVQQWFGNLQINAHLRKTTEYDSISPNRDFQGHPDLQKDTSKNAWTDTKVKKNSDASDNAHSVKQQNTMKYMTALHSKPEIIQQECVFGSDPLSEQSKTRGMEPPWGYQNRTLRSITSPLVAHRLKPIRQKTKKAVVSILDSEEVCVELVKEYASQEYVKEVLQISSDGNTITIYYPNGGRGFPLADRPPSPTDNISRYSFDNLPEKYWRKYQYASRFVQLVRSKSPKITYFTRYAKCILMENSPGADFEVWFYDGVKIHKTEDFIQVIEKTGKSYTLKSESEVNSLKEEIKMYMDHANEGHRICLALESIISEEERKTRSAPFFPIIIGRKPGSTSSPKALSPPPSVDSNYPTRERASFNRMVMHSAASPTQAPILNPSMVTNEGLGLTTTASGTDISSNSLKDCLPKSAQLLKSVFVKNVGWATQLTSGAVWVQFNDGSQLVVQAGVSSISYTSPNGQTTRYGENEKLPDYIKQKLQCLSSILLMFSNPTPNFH
Method in brief: (§1)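 Selectivity panel of 380 human recombinant protein kinases, screened by Eurofins at a range of concentrations.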

[2] = target: T2, 380 human recombinant protein kinases (Homo sapiens, UniProt P51451); conditions: Blk(h), read-out: Inhibition rate
T2 construct: purchased Eurofins (Celle Lévescault)
T2 sequence (P51451 whole entry): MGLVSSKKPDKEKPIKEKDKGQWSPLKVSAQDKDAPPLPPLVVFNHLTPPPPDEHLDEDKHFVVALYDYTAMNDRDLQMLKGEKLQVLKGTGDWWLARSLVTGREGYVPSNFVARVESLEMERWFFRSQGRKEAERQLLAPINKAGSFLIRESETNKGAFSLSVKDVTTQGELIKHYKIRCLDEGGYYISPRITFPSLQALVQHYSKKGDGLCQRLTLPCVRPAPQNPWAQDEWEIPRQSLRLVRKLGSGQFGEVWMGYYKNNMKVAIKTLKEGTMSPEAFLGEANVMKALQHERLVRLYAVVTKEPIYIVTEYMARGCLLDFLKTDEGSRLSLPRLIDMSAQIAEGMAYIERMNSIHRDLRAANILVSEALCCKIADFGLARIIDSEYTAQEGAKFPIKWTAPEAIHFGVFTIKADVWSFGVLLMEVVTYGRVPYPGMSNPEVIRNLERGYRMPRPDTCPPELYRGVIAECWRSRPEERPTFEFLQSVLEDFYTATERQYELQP
Method in brief: as §1

[3] = target: T3, 380 human recombinant protein kinases (Homo sapiens, UniProt Q7L7X3); conditions: TAO1(h), read-out: Inhibition rate (%)
T3 construct: purchased Eurofins (Celle Lévescault)
T3 sequence (Q7L7X3 1-1001): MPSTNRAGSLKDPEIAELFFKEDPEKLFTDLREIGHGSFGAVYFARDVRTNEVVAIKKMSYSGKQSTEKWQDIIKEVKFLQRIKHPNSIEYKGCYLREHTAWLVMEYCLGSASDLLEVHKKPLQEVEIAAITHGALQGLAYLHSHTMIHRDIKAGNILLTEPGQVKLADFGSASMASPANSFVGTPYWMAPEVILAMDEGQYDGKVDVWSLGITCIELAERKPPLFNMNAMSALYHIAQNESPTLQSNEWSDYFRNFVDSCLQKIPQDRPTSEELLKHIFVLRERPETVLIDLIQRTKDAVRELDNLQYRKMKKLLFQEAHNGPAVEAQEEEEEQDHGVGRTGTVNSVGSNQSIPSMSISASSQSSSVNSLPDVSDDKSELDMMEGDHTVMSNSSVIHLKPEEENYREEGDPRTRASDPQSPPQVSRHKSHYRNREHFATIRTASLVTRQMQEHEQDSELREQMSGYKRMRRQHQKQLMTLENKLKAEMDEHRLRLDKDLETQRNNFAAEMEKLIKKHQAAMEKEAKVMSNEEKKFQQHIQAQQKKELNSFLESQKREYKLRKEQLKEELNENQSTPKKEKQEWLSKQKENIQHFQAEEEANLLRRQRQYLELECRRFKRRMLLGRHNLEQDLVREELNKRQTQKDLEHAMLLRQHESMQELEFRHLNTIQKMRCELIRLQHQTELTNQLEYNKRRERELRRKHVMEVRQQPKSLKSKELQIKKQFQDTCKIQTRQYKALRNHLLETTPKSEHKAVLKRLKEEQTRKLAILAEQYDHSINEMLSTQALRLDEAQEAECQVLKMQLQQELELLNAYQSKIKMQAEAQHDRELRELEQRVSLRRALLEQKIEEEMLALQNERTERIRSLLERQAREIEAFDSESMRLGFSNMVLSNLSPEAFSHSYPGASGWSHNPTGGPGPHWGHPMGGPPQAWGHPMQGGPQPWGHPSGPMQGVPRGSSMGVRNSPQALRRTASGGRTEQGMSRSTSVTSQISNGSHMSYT
Method in brief: as §1

[4] = target: T4, 380 human recombinant protein kinases (Homo sapiens, UniProt Q96PF2); conditions: TSSK2(h), read-out: Inhibition rate (%)
T4 construct: purchased Eurofins (Celle Lévescault)
T4 sequence (Q96PF2 1-358): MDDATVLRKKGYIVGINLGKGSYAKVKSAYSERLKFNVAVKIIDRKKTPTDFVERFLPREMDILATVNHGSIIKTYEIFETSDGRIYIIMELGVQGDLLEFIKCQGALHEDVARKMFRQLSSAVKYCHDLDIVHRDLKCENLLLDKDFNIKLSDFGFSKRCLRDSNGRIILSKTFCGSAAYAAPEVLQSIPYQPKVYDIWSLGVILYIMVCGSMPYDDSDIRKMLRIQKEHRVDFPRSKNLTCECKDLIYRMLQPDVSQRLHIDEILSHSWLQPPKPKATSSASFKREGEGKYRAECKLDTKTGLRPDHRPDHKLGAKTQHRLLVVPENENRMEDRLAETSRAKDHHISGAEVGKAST
Method in brief: as §1

[5] = target: T5, 380 human recombinant protein kinases (Homo sapiens, UniProt Q9NY57); conditions: STK32B(h), read-out: Inhibition rate (%)
T5 construct: purchased Eurofins (Celle Lévescault)
T5 sequence (Q9NY57 whole entry): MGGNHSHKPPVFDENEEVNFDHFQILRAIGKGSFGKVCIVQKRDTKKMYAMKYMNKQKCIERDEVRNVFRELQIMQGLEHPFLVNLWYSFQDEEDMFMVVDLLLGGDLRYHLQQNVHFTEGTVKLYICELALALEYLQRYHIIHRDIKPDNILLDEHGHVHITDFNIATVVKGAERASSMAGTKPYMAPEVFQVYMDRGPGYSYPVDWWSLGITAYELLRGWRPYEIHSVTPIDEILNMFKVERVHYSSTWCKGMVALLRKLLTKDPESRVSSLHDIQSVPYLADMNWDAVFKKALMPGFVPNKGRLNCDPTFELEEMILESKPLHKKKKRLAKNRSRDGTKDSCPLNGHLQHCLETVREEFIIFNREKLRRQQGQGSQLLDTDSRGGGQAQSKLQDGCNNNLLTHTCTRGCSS
Method in brief: as §1

C=CC(=O)Nc1cc(-c2cc(-c3cc4c([nH]3)CCNC4=O)ccn2)ccc1OC(F)(F)F [compound 11]
inhibition at 0.01 µM ([1]; 10 nM): 9% | inhibition at 0.1 µM ([1]; 100 nM): 4% | inhibition at 1 µM ([1]; 1000 nM): 33% | inhibition at 0.01 µM ([2]; 10 nM): 13% | inhibition at 0.1 µM ([2]; 100 nM): 4% | inhibition at 1 µM ([2]; 1000 nM): 12% | inhibition at 0.01 µM ([3]; 10 nM): 3% | inhibition at 0.1 µM ([3]; 100 nM): 6% | inhibition at 1 µM ([3]; 1000 nM): 11% | inhibition at 0.01 µM ([4]; 10 nM): -7% | inhibition at 0.1 µM ([4]; 100 nM): -5% | inhibition at 1 µM ([4]; 1000 nM): -5% | inhibition at 0.01 µM ([5]; 10 nM): -9% | inhibition at 0.1 µM ([5]; 100 nM): -5% | inhibition at 1 µM ([5]; 1000 nM): -3%
